Usually ED50 stands for the dose that gives a 50% effect, or the effect in half of the subjects. Low values mean an effect at a small dose, high ones a need for a large dose.

Molecules are shown by their SMILES.

The values that follow come from paper PMC10272271, “MAM-2201 acute administration impairs motor, sensorimotor, prepulse inhibition, and memory functions in mice: a comparison with its analogue AM-2201” (Psychopharmacology, 2023).

Test [1] deals with CD-1 male mice. The arrangement: method as in Bilel et al. ([2020]). As to conditions: i.p., value ± SEM, elaborated from earlier data, ref Bilel et al. ([2020]); cited from earlier work.
The test system of test [2] is CD-1 male mice. The arrangement: method as in Bilel et al. ([2020]). As to conditions: i.p., value ± SEM, elaborated from earlier data, ref Bilel et al. ([2020]); cited from earlier work. This is another data set of the same source.
The test system of test [3] is CD-1 male mice. The arrangement: method as in Bilel et al. ([2020]). As to conditions: i.p., value ± SEM, elaborated from earlier data, ref Bilel et al. ([2020]); cited from earlier work. This is another data set of the same source.
The subject of test [4] is CD-1 male mice. More on the design: method as in Bilel et al. ([2020]). As to conditions: i.p., value ± SEM, elaborated from earlier data, ref Bilel et al. ([2020]); cited from earlier work. The source holds these as a separate data set.
Test [5] deals with CD-1 male mice. Kind of test: Visual object response test. The format is in vivo, mouse. On the procedure: For the overall study 234 mice were used. In sensorimotor (visual object, visual placing, acoustic, and overall tactile responses) tests for MAM-2201, experiments for each treatment dose (vehicle or 5 different MAM-2201 doses, 0.01, 0.1, 1, 3, and 6 mg/kg) used 8 mice (total mice used: 48) and for MAM-2201 with AM-251 pretreatment, experiments for each dose regimen (vehicle + AM-251 or MAM-2201 + AM-251, 6 mg/kg) used 16 mice. In the analysis of spontaneous locomotion (open field test) for MAM-2201, experiments for each treatment regimen (vehicle or 4 different MAM-2201 doses, 0.01, 0.1, 1, and 6 mg/kg) used 10 mice (total mice used: 50). In the PPI test for MAM-2201, experiments for each treatment (vehicle or 3 different MAM-2201 doses, 0.01, 0.1, and 1 mg/kg) used 10 mice (total mice used: 40), while for MAM-2201 experiments in the Novel Object Recognition (NOR) test for each treatment regimen (vehicle or 3 different MAM-2201 and vehicle or 3 different AM-2201 doses, 0.01, 0.1, and 1 mg/kg) used 10 mice (total mice used: 80). In the present study the effect of MAM-2201 on sensorimotor responses was investigated using a battery of behavioral tests widely used in studies of “safety-pharmacology,” that we routinely adopted in our laboratory, for the preclinical characterization of new molecules in rodents (Ossato et al. [2015]; Vigolo et al. [2015]; Bilel et al. [2020]). The voluntary and involuntary motor responses of the animal to different visual, acoustic, and tactile stimuli were evaluated according to the procedure described in our previous studies (Ossato et al. [2015]; Bilel et al. [2020]). To reduce the number of animals used, mice were evaluated in functional observational tests carried out in a consecutive manner according to the following time scheme: observation of visual object responses (frontal and lateral view), acoustic response, tactile response (vibrissae, corneal and pinnae reflexes), and visual placing response. Sensorimotor tests were measured at 10, 30, 60, 120, 180, 240, and 300 min after injections for the evaluation of the visual object, acoustic and the tactile response, and at 15, 45, 75, 135, 195, 255, and 315 min after injections for the evaluation of visual placing response. Behavioral tests were conducted in a thermostated (temperature: 20–22 °C, humidity: 45–55%) and light (150 lx) controlled room with a background noise of 40 ± 4 dB. The apparatus for the visual object, acoustic and tactile sensorimotor tests consisted of an experimental chamber (350 × 350 × 350 mm) with black methacrylate walls and a transparent front door. During the week before the experiment, each mouse was placed in the box and handled (once a day) on every other day, i.e., 3 times, to get used to both the environment and the experimenter. To avoid olfactory cues, cages were carefully cleaned with a dilute (5%) ethanol solution and rinsed with water. All experiments were performed between 8:30 AM and 2:00 PM and conducted by trained observers working in pairs who were blinded to the treatment being tested (Ossato et al. [2015]). The behavior of mice was videotaped by a camera (B/W USB Camera day & night with varifocal lens; Ugo Basile, Italy) placed at the top or on one side of the box and analyzed off-line by a different trained operator. Spontaneous locomotion studies were conducted in a separate set of animals through ANYMAZE test. Sensory gating was evaluated by analysis of the pre-pulse inhibition (PPI) of the acoustic startle reflex as previously described (Bilel et al. [2020]).
Visual object response test was used to evaluate the ability of the mouse to see an object approaching from the front (frontal view) or the side (lateral view) that typically induces the animal to shift or turn the head, bring the forelimbs in the position of “defense” or retreat from it. For the frontal visual response, a white horizontal bar was moved frontally to the mouse head and the maneuver was repeated 3 times. […]

Test [6] relates to CD-1 male mice. The test can be described thus: Visual placing response test. In kind it is in vivo, mouse. On the procedure:
For the overall study 234 mice were used. In sensorimotor (visual object, visual placing, acoustic, and overall tactile responses) tests for MAM-2201, experiments for each treatment dose (vehicle or 5 different MAM-2201 doses, 0.01, 0.1, 1, 3, and 6 mg/kg) used 8 mice (total mice used: 48) and for MAM-2201 with AM-251 pretreatment, experiments for each dose regimen (vehicle + AM-251 or MAM-2201 + AM-251, 6 mg/kg) used 16 mice. In the analysis of spontaneous locomotion (open field test) for MAM-2201, experiments for each treatment regimen (vehicle or 4 different MAM-2201 doses, 0.01, 0.1, 1, and 6 mg/kg) used 10 mice (total mice used: 50). In the PPI test for MAM-2201, experiments for each treatment (vehicle or 3 different MAM-2201 doses, 0.01, 0.1, and 1 mg/kg) used 10 mice (total mice used: 40), while for MAM-2201 experiments in the Novel Object Recognition (NOR) test for each treatment regimen (vehicle or 3 different MAM-2201 and vehicle or 3 different AM-2201 doses, 0.01, 0.1, and 1 mg/kg) used 10 mice (total mice used: 80). […] The voluntary and involuntary motor responses of the animal to different visual, acoustic, and tactile stimuli were evaluated according to the procedure described in our previous studies (Ossato et al. [2015]; Bilel et al. [2020]). To reduce the number of animals used, mice were evaluated in functional observational tests carried out in a consecutive manner according to the following time scheme: observation of visual object responses (frontal and lateral view), acoustic response, tactile response (vibrissae, corneal and pinnae reflexes), and visual placing response. Sensorimotor tests were measured at 10, 30, 60, 120, 180, 240, and 300 min after injections for the evaluation of the visual object, acoustic and the tactile response, and at 15, 45, 75, 135, 195, 255, and 315 min after injections for the evaluation of visual placing response. […] Sensory gating was evaluated by analysis of the pre-pulse inhibition (PPI) of the acoustic startle reflex as previously described (Bilel et al. [2020]). […]

Test [7] relates to CD-1 male mice. The test can be described thus: Acoustic startle and pre-pulse inhibition (PPI) test. In kind it is in vivo, mouse.

For `O=C(c1cccc2ccccc12)c1cn(CCCCCF)c2ccccc12` [AM-2201, 1-[(5-Fluoropentyl)-1H-indol-3-yl](1-naphthylenyl) methanone], in test [1], the “ED50 (mg/kg), Visual object” value is 1.976 ± 0.063 mg/kg. Besides, the “ED50 (mg/kg), Visual placing” value in test [2] was 0.500 ± 0.030 mg/kg. Besides, the “ED50 (mg/kg), Startle reflex” value in test [3] was 1.291 ± 0.010 mg/kg. For the same compound, the “ED50 (mg/kg), Overall tactile” value in test [4] is 2.120 ± 0.013 mg/kg.
For `Cc1ccc(C(=O)c2cn(CCCCCF)c3ccccc23)c2ccccc12` [MAM-2201, 1-[(5-fluoropentyl)-1H-indol-3-yl](4-methyl-1-naphthalenyl) methanone], the “effect on visual object response” value in test [5] (0.01 mg/kg i.p., at 30 min after injection) is “transiently reduced”; in test [5] (0.1 mg/kg i.p.), “long-lasting inhibition”; in test [5] (1 mg/kg i.p., at 30 min) it was “total inhibition”; in test [5] (3 and 6 mg/kg i.p., until end of test (5 h)), “deep and prolonged impairment”. Besides, the ED50 was 1.14 ± 0.089 mg/kg in test [5] (Mus musculus, ip, mice, value ± SEM, dose for 50% of overall mean effect) and 0.291 ± 0.025 mg/kg in test [6] (Mus musculus, ip, mice, value ± SEM). Also, in test [6] (0.01-6 mg/kg i.p., persisted up to 5 h at all doses), the “effect on visual placing response” value was “drastic impairment”. Besides, the “effect on startle amplitude” value in test [7] (only at 1 mg/kg i.p., at 15 and 120 min) was “reduced”. In test [7] (prepulse 68 dB, 15 min, 0.1 and 1 mg/kg i.p.), the “effect on PPI (prepulse startle intensity)” value is given as “significant decrease”. Further, the “decrease of PPI” value is ~ 19% in test [7] (prepulse 68 dB, 120 min, 0.1 mg/kg i.p.); approximately 40% in test [7] (prepulse 68 dB, 120 min, 1 mg/kg i.p.); ~ 28% in test [7] (prepulse 75 dB, 15 min, 0.1 mg/kg i.p.); ~ 41% in test [7] (prepulse 75 dB, 15 min, 1 mg/kg i.p.); ~ 34% in test [7] (prepulse 75 dB, 120 min, 1 mg/kg i.p.); ~ 19% in test [7] (prepulse 85 dB, 15 min, 0.1 mg/kg i.p.). Also, the “decrease of PPI” value is ~ 37% in test [7] (prepulse 85 dB, 15 min, 1 mg/kg i.p.); ~ 19% in test [7] (prepulse 85 dB, 120 min, 0.1 mg/kg i.p.); ~ 37% in test [7] (prepulse 85 dB, 120 min, 1 mg/kg i.p.).
